Laboratory results: US20090047221A1 (NIPRI LIMITED, priority 2004, published 2009)

Tested on: cancer cell line MDA-MB-468
Experiment: Combination index with known cancer drugs against proliferation (Calcusyn software)
Assay type: cell-based
Source text: A combination index of less than 0.1 indicates very strong synergy; a combination index of 0.1 to 0.3 indicates strong synergism; a combination index of 0.3 to 0.7 indicates synergism; a combination index of 0.7 to 0.85 indicates moderate synergism; a combination index of 0.85 to 0.9 indicates slight synergism and a combination index of 0.9 to 1.1 indicates only very slight synergism, said combination being close to merely additive.
The combination index may be calculated using calcusyn software.
Evidence of synergy was determined by calculation of the combination index using Calcusyn software.
The MTT assay was used initially to determine the anti-proliferative activity of the test compounds. In the MTT assay a yellow thiazolyl blue tetrazolium bromide salt (MTT) is reduced, in metabolically active cells, to form insoluble purple formazan crystals which are solubilised by the addition of dimethyl sulphoxide (DMSO). Absorbance readings can then be determined spectrophotometrically and a relationship established between control untreated cells and drug treated cells enabling the quantification of anti-proliferative changes as a result of drug treatment (Mosmann, 1983).
Wells containing medium only were used as blanks. Following the attachment period, cells were treated with appropriate drug concentrations (20 μl added per well). 40 mg/ml stock drug solutions, in DMSO, were stored at −20° C. and on the day of drug treatment working solutions of 4 mg/ml were prepared in medium which was further diluted to achieve final drug dilution volumes of 20 μl. Initial screening was determined over a concentration range of 1-200 μg/ml. For potent compounds the assay was repeated over a narrower concentration range to determine accurate IC50 values. Cells were exposed to drug for 96 h continual exposure (37° C., 5% CO2). Following the 96 h incubation, 50 μl MTT solution (1 g MTT/500 ml PBS) was added per well and the plates were further incubated for 4 h (37° C., 5% CO2). After incubation the MTT and medium was removed from the wells and 100 μl DMSO added per well. Plates were agitated on an orbital mixer platform (Stuart Scientific) for 10 minutes. Absorbance was measured at 570 nm on a Biotrak II (Amersham Bioscience) plate reader. IC50 values were calculated comparing control and drug treated cells.

CCCCC/C=C\C/C=C\C/C=C\CCCCCOC(=O)c1ccc2c(c1O)C(=O)OC(C)C2 (racemic) [ALM-43, γ-Linolenyl Ester]
Combination Index (Cisplatin 1 × 10^−2 mol/L, ALM compound 0.1 μg/ml): 0.063 | Combination Index (Cisplatin 1 × 10^−2 mol/L, ALM compound 0.5 μg/ml): 0.003 | Combination Index (Cisplatin 1 × 10^−2 mol/L, ALM compound 1.0 μg/ml): 0.007 | Combination Index (Cisplatin 1 × 10^−2 mol/L, ALM compound 5.0 μg/ml): 0.038 | Combination Index (Cisplatin 1 × 10^−3 mol/L, ALM compound 0.1 μg/ml): No | Combination Index (Cisplatin 1 × 10^−3 mol/L, ALM compound 0.5 μg/ml): No | Combination Index (Cisplatin 1 × 10^−3 mol/L, ALM compound 1.0 μg/ml): No | Combination Index (Cisplatin 1 × 10^−3 mol/L, ALM compound 5.0 μg/ml): No | Combination Index (Cisplatin 1 × 10^−4 mol/L, ALM compound 0.1 μg/ml): No | Combination Index (Cisplatin 1 × 10^−4 mol/L, ALM compound 0.5 μg/ml): No | Combination Index (Cisplatin 1 × 10^−4 mol/L, ALM compound 1.0 μg/ml): No | Combination Index (Cisplatin 1 × 10^−4 mol/L, ALM compound 5.0 μg/ml): No | Combination Index (Cisplatin 1 × 10^−5 mol/L, ALM compound 0.1 μg/ml): No | Combination Index (Cisplatin 1 × 10^−5 mol/L, ALM compound 0.5 μg/ml): No | Combination Index (Cisplatin 1 × 10^−5 mol/L, ALM compound 1.0 μg/ml): No | Combination Index (Cisplatin 1 × 10^−5 mol/L, ALM compound 5.0 μg/ml): No | Combination Index (Cisplatin 1 × 10^−6 mol/L, ALM compound 0.1 μg/ml): No | Combination Index (Cisplatin 1 × 10^−6 mol/L, ALM compound 0.5 μg/ml): No | Combination Index (Cisplatin 1 × 10^−6 mol/L, ALM compound 1.0 μg/ml): No | Combination Index (Cisplatin 1 × 10^−6 mol/L, ALM compound 5.0 μg/ml): No | Combination Index (Cisplatin 1 × 10^−7 mol/L, ALM compound 0.1 μg/ml): 0.636 | Combination Index (Cisplatin 1 × 10^−7 mol/L, ALM compound 0.5 μg/ml): 0.612 | Combination Index (Cisplatin 1 × 10^−7 mol/L, ALM compound 1.0 μg/ml): No | Combination Index (Cisplatin 1 × 10^−7 mol/L, ALM compound 5.0 μg/ml): No | Combination Index (Cisplatin 1 × 10^−8 mol/L, ALM compound 0.1 μg/ml): 0.199 | Combination Index (Cisplatin 1 × 10^−8 mol/L, ALM compound 0.5 μg/ml): No | Combination Index (Cisplatin 1 × 10^−8 mol/L, ALM compound 1.0 μg/ml): No | Combination Index (Cisplatin 1 × 10^−8 mol/L, ALM compound 5.0 μg/ml): No | Combination Index (Cisplatin 1 × 10^−9 mol/L, ALM compound 0.1 μg/ml): 0.054 | Combination Index (Cisplatin 1 × 10^−9 mol/L, ALM compound 0.5 μg/ml): 0.536 | Combination Index (Cisplatin 1 × 10^−9 mol/L, ALM compound 1.0 μg/ml): No | Combination Index (Cisplatin 1 × 10^−9 mol/L, ALM compound 5.0 μg/ml): No | Combination Index (Doxorubicin 1 × 10^−4 mol/L, ALM compound 0.1 μg/ml): No | Combination Index (Doxorubicin 1 × 10^−4 mol/L, ALM compound 0.5 μg/ml): No | Combination Index (Doxorubicin 1 × 10^−4 mol/L, ALM compound 1.0 μg/ml): No | Combination Index (Doxorubicin 1 × 10^−4 mol/L, ALM compound 5.0 μg/ml): No | Combination Index (Doxorubicin 1 × 10^−5 mol/L, ALM compound 0.1 μg/ml): 0.385 | Combination Index (Doxorubicin 1 × 10^−5 mol/L, ALM compound 0.5 μg/ml): 0.700 | Combination Index (Doxorubicin 1 × 10^−5 mol/L, ALM compound 1.0 μg/ml): 0.278 | Combination Index (Doxorubicin 1 × 10^−5 mol/L, ALM compound 5.0 μg/ml): 0.457 | Combination Index (Etoposide 1 × 10^−4 mol/L, ALM compound 0.1 μg/ml): 0.399 | Combination Index (Etoposide 1 × 10^−4 mol/L, ALM compound 0.5 μg/ml): 0.289 | Combination Index (Etoposide 1 × 10^−4 mol/L, ALM compound 1.0 μg/ml): 0.418 | Combination Index (Etoposide 1 × 10^−4 mol/L, ALM compound 5.0 μg/ml): 0.474 | Combination Index (Etoposide 1 × 10^−5 mol/L, ALM compound 0.1 μg/ml): No | Combination Index (Etoposide 1 × 10^−5 mol/L, ALM compound 0.5 μg/ml): No | Combination Index (Etoposide 1 × 10^−5 mol/L, ALM compound 1.0 μg/ml): No | Combination Index (Etoposide 1 × 10^−5 mol/L, ALM compound 5.0 μg/ml): No | Combination Index (Etoposide 1 × 10^−6 mol/L, ALM compound 0.1 μg/ml): No | Combination Index (Etoposide 1 × 10^−6 mol/L, ALM compound 0.5 μg/ml): 0.865 | Combination Index (Etoposide 1 × 10^−6 mol/L, ALM compound 1.0 μg/ml): No | Combination Index (Etoposide 1 × 10^−6 mol/L, ALM compound 5.0 μg/ml): No | Combination Index (Etoposide 1 × 10^−7 mol/L, ALM compound 0.1 μg/ml): 0.473 | Combination Index (Etoposide 1 × 10^−7 mol/L, ALM compound 0.5 μg/ml): 0.305 | Combination Index (Etoposide 1 × 10^−7 mol/L, ALM compound 1.0 μg/ml): No | Combination Index (Etoposide 1 × 10^−7 mol/L, ALM compound 5.0 μg/ml): No | Combination Index (Etoposide 1 × 10^−8 mol/L, ALM compound 0.1 μg/ml): 0.181 | Combination Index (Etoposide 1 × 10^−8 mol/L, ALM compound 0.5 μg/ml): 0.137 | Combination Index (Etoposide 1 × 10^−8 mol/L, ALM compound 1.0 μg/ml): No | Combination Index (Etoposide 1 × 10^−8 mol/L, ALM compound 5.0 μg/ml): No | Combination Index (Etoposide 1 × 10^−9 mol/L, ALM compound 0.1 μg/ml): 0.090 | Combination Index (Etoposide 1 × 10^−9 mol/L, ALM compound 0.5 μg/ml): 0.319 | Combination Index (Etoposide 1 × 10^−9 mol/L, ALM compound 1.0 μg/ml): No | Combination Index (Etoposide 1 × 10^−9 mol/L, ALM compound 5.0 μg/ml): No | Combination Index (Etoposide 1 × 10^−10 mol/L, ALM compound 0.1 μg/ml): 0.083 | Combination Index (Etoposide 1 × 10^−10 mol/L, ALM compound 0.5 μg/ml): 0.515 | Combination Index (Etoposide 1 × 10^−10 mol/L, ALM compound 1.0 μg/ml): No | Combination Index (Etoposide 1 × 10^−10 mol/L, ALM compound 5.0 μg/ml): No | Combination Index (Irinotecan 1 × 10^−3 mol/L, ALM compound 0.1 μg/ml): 0.088 | Combination Index (Irinotecan 1 × 10^−3 mol/L, ALM compound 0.5 μg/ml): 0.230 | Combination Index (Irinotecan 1 × 10^−3 mol/L, ALM compound 1.0 μg/ml): 0.438 | Combination Index (Irinotecan 1 × 10^−3 mol/L, ALM compound 5.0 μg/ml): 0.307 | Combination Index (Irinotecan 1 × 10^−4 mol/L, ALM compound 0.1 μg/ml): 0.019 | Combination Index (Irinotecan 1 × 10^−4 mol/L, ALM compound 0.5 μg/ml): 0.005 | Combination Index (Irinotecan 1 × 10^−4 mol/L, ALM compound 1.0 μg/ml): 0.040 | Combination Index (Irinotecan 1 × 10^−4 mol/L, ALM compound 5.0 μg/ml): 0.113 | Combination Index (Irinotecan 1 × 10^−5 mol/L, ALM compound 0.1 μg/ml): No | Combination Index (Irinotecan 1 × 10^−5 mol/L, ALM compound 0.5 μg/ml): No | Combination Index (Irinotecan 1 × 10^−5 mol/L, ALM compound 1.0 μg/ml): No | Combination Index (Irinotecan 1 × 10^−5 mol/L, ALM compound 5.0 μg/ml): No | Combination Index (Irinotecan 1 × 10^−6 mol/L, ALM compound 0.1 μg/ml): No | Combination Index (Irinotecan 1 × 10^−6 mol/L, ALM compound 0.5 μg/ml): No | Combination Index (Irinotecan 1 × 10^−6 mol/L, ALM compound 1.0 μg/ml): No | Combination Index (Irinotecan 1 × 10^−6 mol/L, ALM compound 5.0 μg/ml): No | Combination Index (Irinotecan 1 × 10^−7 mol/L, ALM compound 0.1 μg/ml): No | Combination Index (Irinotecan 1 × 10^−7 mol/L, ALM compound 0.5 μg/ml): No | Combination Index (Irinotecan 1 × 10^−7 mol/L, ALM compound 1.0 μg/ml): No | Combination Index (Irinotecan 1 × 10^−7 mol/L, ALM compound 5.0 μg/ml): No | Combination Index (Irinotecan 1 × 10^−8 mol/L, ALM compound 0.1 μg/ml): 0.514 | Combination Index (Irinotecan 1 × 10^−8 mol/L, ALM compound 0.5 μg/ml): 0.233 | Combination Index (Irinotecan 1 × 10^−8 mol/L, ALM compound 1.0 μg/ml): No | Combination Index (Irinotecan 1 × 10^−8 mol/L, ALM compound 5.0 μg/ml): No | Combination Index (Irinotecan 1 × 10^−9 mol/L, ALM compound 0.1 μg/ml): 0.701 | Combination Index (Irinotecan 1 × 10^−9 mol/L, ALM compound 0.5 μg/ml): 0.628 | Combination Index (Irinotecan 1 × 10^−9 mol/L, ALM compound 1.0 μg/ml): No | Combination Index (Irinotecan 1 × 10^−9 mol/L, ALM compound 5.0 μg/ml): No | Combination Index (Irinotecan 1 × 10^−11 mol/L, ALM compound 0.1 μg/ml): 0.172 | Combination Index (Irinotecan 1 × 10^−11 mol/L, ALM compound 0.5 μg/ml): 0.484 | Combination Index (Irinotecan 1 × 10^−11 mol/L, ALM compound 1.0 μg/ml): No | Combination Index (Irinotecan 1 × 10^−11 mol/L, ALM compound 5.0 μg/ml): No
